{"source": "patent US12390460B2", "about": "“Treatment for obesity” (1GLOBE BIOMEDICAL CO., LTD., priority 2018, dated 2025)", "key": {"[1]": {"tested_on": "hypothalamic molecular mediators of hunger and satiety signaling (AgRP, NPY, POMC)", "experiment": "Quantitative real-time PCR of hypothalamic hunger and satiety genes", "assay_type": "in vivo", "conditions": "HFD-fed mice, FIG. 2B", "method": "Referring now to FIG. 2B, hypothalamic molecular mediators of hunger and satiety signaling in hypothalamus were analyzed using quantitative real-time PCR with commercially available probes (Thermo Fisher Scientific Inc., Waltham, MA). AgRP and NPY are hunger-inducing signals, while POMC is powerful satiety-inducing signal in the hypothalamus. […] This was in agreement with the food intake information that we collected over the course of the experiment. […] Therefore, it was concluded that the expression levels of hypothalamic hunger or satiety genes cannot explain the marked weight loss of the Compound-14-3-treated mice on HFD and that decrease in satiety was secondary to prolonged negative energy balance in the same group."}, "[2]": {"experiment": "Oral glucose tolerance test (OGTT)", "assay_type": "in vivo", "conditions": "HFD-fed mice, 5th week of treatment, vs vehicle", "method": "(§1) The described beneficial changes in body composition improved all aspects of the metabolic syndrome, including the underlying insulin resistance. Therefore, to fully characterize this animal model, we also assessed insulin signaling on live animals on the 5th week of Compound 14-3-treatment by conducting oral glucose tolerance test (OGTT, FIGS. 9A-C) and intraperitoneal insulin tolerance test (ITT, FIGS. 9D-E).\n(§2) Both the OGTT and ITT tests were carried out on mice that have been starved for 6 hours before the procedure to eliminate the effect of the last meal on the blood glucose level. In both tests, we measured fasting glucose levels 30 min before the start of the assay to define baseline conditions. In the OGTT assay, the mice had been gavaged with 2 g/kg glucose, dissolved in water. After administration of the glucose, blood glucose level was measured via tail vein nicking using a commercially available glucometer. The obtained data was plotted against time (FIG. 9A) and the area under curve (AUC) calculations were carried out (FIG. 9B). Additionally, the blood glucose level measured at 120 min after gavage was used to describe the overall glucose tolerance of the mice (FIG. 9C)."}, "[3]": {"tested_on": "intestinal fat absorption", "experiment": "Fecal triglyceride content (biochemical kit) in HFD-fed mice", "assay_type": "in vivo", "conditions": "5th week of treatment, vs vehicle, FIG. 2A", "method": "Referring to FIG. 2A, the fecal triglyceride content was assessed using a standard biochemical kit (Biovision, Mountain View, CA). Fecal samples were collected on the 5th week of the treatment over the course of three days. The fecal triglyceride content was normalized to fecal mass. […] Therefore, this mechanism cannot explain the observed significant weight loss in the drug-treated mice."}, "FGF21": {"tested_on": "FGF21", "experiment": "Serum FGF21 (ELISA) and FGF21 gene expression", "assay_type": "in vivo", "conditions": "HFD-fed mice", "from_the_text": "Many of the beneficial metabolic effect are linked to FGF21, and FGF21 itself may further enhance fatty acid oxidation (Xu J, et al. Diabetes (2009) 58(1):250-259; Li H, et al. Diabetes (2012) 61(4):797-806). We, therefore, also measured serum levels of FGF21 using a commercially available ELISA kit. […] Accordingly, in an aspect of the invention, Compound 14-3 treatment is utilized to increase fatty acid oxidation, resulting in decreased fat content in iWAT and eWAT, and decreased body weight in a subject."}, "leptin": {"tested_on": "leptin", "experiment": "Serum leptin (ELISA)", "assay_type": "in vivo", "conditions": "HFD-fed mice, FIG. 7C", "from_the_text": "Since crosstalk between leptin and FGF21 has been proposed in connection with the anti-obesity effects of FGF21 and a suppressive effect of exogenous FGF21 on circulating leptin levels has been previously observed in non-human primates, we also measured serum leptin levels using a commercially available ELISA kit. As expected, changes in fat content in the Compound 14-3-treated HFD group were followed by decrease in serum levels of fat-derived ‘satiety’ hormone leptin, indicating improved leptin resistance resulting from treatment using a compound of the invention (FIG. 7C). Thus, lower circulation levels of leptin were most likely due to drug-induced reductions in the masses of fat depos. This finding can explain decrease in POMC gene expression in the hypothalamus, as leptin is capable to directly modulate hypothalamic melanocortin system by changing the activity of POMC neurons."}, "human HepG2 liver cells": {"tested_on": "human HepG2 liver cells", "experiment": "Intracellular triglyceride content in HepG2 cells with palmitoleic acid (biochemical kit)", "assay_type": "cell-based", "conditions": "HepG2, 1.6 mM palmitoleic acid, 48 hours, 0.1 μM compound, vs DMSO; FIG. 10A", "method": "A series of in vitro experiments were first carried out with various human hepatocyte cultures. For example, human HepG2 liver cells were incubated with 1.6 mM palmitoleic acid in EMEM medium for 48 hours in the presence of 0.1 μM Compound 14-3 or control vehicle, DMSO. After 48 hours, cells were collected and the intracellular triglyceride content was measured by a biochemical kit (Biovision, Mountain View, CA) as described in Derdak et al. J Hepatol. 2013; 58(4):785-91."}, "[4]": {"tested_on": "UCP1 and DIO2 in brown adipose tissue (BAT)", "experiment": "Quantitative real-time PCR of markers of thermogenic brown adipose tissue activation", "assay_type": "in vivo", "conditions": "HFD-fed mice, vs vehicle; FIG. 2C", "from_the_text": "Finally, the recruitment of brown adipose tissue (BAT) was examined. BAT is a well-know site for dissipating excess energy to prevent weight gain by inducing thermogenesis. Importantly, the expression levels of the two investigated markers of thermogenic BAT activation—UCP1 and DIO2—were not different in the two HFD-fed groups when measured by quantitative real-time PCR (FIG. 2C), indicating similar levels of BAT activation in response to HFD. These findings led us to conclude that for the weigh loss seen in the Compound 14-3-treated HFD-fed mice, other mechanisms are probably responsible."}, "[5]": {"experiment": "Intraperitoneal insulin tolerance test (ITT)", "assay_type": "in vivo", "conditions": "HFD-fed mice, 5th week of treatment, vs vehicle", "method": "as §1\nas §2, with “The obtained data was plotted against time (FIG. 9A) and the area under curve (AUC) calculations were carried out (FIG. 9B).” left out\nIn the ITT test, we have intraperitoneally administered […] human recombinant insulin (Humulin N, Eli Lilly, Cambridge, MA) at the start of the assay and blood glucose was similarly measured for 120 min. […]"}, "[6]": {"tested_on": "white adipose tissue adipocytes", "experiment": "H & E staining and morphometry of eWAT and iWAT adipocytes", "assay_type": "in vivo", "conditions": "HFD-fed mice"}, "[7]": {"experiment": "Fat pad weights at euthanasia (body composition)", "assay_type": "in vivo", "conditions": "HFD-fed mice at euthanasia", "from_the_text": "In agreement with effects of Compound 14-3 seen in the above examples, favorable changes in the body composition of Compound 14-3-treated and HFD-fed mice were also observed at the time of euthanasia through gross examination.\nThe former anatomical site represents visceral fat depos, while the latter belongs to subcutaneous fat depo from the perspective of human health. Both of these changes were considered very substantial and beneficial in the anti-obesity effect profile of the compound of the invention."}}}
{"smiles": "CCN(CC)CCNC(=O)c1c(C)[nH]c(/C=C2\\C(=O)Nc3ccc(-c4csc(-c5ccccc5)n4)cc32)c1C", "note": "[Compound 14-3]", "values": [{"measurement": "satiety-inducing POMC expression in hypothalamus", "setting": "[1]; vs corresponding control group", "result": "significant decrease"}, {"measurement": "expression of appetite-inducing genes (AgRP, NPY) in hypothalamus", "setting": "[1]; vs vehicle", "result": "no significant difference"}, {"measurement": "glucose tolerance (OGTT)", "setting": "[2]; 6 h starved, 2 g/kg glucose gavage, FIG. 9A", "result": "markedly improved"}, {"measurement": "area under curve during OGTT", "setting": "[2]; FIG. 9B", "result": "smaller"}, {"measurement": "blood glucose level at 120 min during OGTT", "setting": "[2]; FIG. 9C", "result": "decreased"}, {"measurement": "fecal triglyceride content normalized to fecal mass", "setting": "[3]", "result": "little difference"}, {"measurement": "serum FGF21 levels", "setting": "FGF21; ELISA, FIG. 7A", "result": "increased"}, {"measurement": "FGF21 gene expression", "setting": "FGF21; FIG. 7B", "result": "increased"}, {"measurement": "serum leptin levels", "setting": "leptin", "result": "decrease"}, {"measurement": "palmitoleic acid-induced increase of intracellular triglyceride content", "setting": "human HepG2 liver cells", "result": "markedly suppressed"}, {"measurement": "DIO2 expression level in BAT", "setting": "[4]", "result": "not different"}, {"measurement": "UCP1 expression level in BAT", "setting": "[4]", "result": "not different"}, {"measurement": "blood glucose levels in response to insulin (ITT)", "setting": "[5]; i.p. insulin, 120 min, FIG. 9D", "result": "steeper drop"}, {"measurement": "area under curve during ITT", "setting": "[5]; FIG. 9E", "result": "smaller"}, {"measurement": "size of eWAT adipocytes", "setting": "[6]; H & E staining of eWAT, FIG. 4A-4B", "result": "decrease in the size of adipocytes"}, {"measurement": "size of iWAT adipocytes", "setting": "[6]; H & E staining of iWAT, morphometry, FIG. 5A-5B", "result": "decrease in size of adipocytes"}, {"measurement": "epididymal fat pad weights", "setting": "[7]; FIG. 3A", "result": "markedly decreased"}, {"measurement": "epididymal fat/body weight ratio", "setting": "[7]; FIG. 3B", "result": "markedly decreased"}, {"measurement": "unilateral (inguinal) fat pad weights", "setting": "[7]; FIG. 3C", "result": "markedly decreased"}, {"measurement": "inguinal fat/body weight ratio", "setting": "[7]; FIG. 3D", "result": "markedly decreased"}]}
